The text below walks through data of US20240217954A1, “CRYSTAL FORM IV OF ORGANIC ACID SALTS OF MELANOCORTIN RECEPTOR AGONIST COMPOUND, AND PREPARATION METHOD THEREOF” (LG CHEM, LTD., priority 2021, published 2024).

The nature of the data set: Solubility assessment: visual, by final volume of water added until the sample is completely dissolved. As to the method:
Solubility indicates the result of measurement based on the final volume of water added to a sample when it is visually confirmed that the sample is completely dissolved by adding water to the sample. The solubility of the actual sample may be higher than the measured solubility. Solubility was measured based on the final volume of water added to a sample when it was visually confirmed that the sample was completely dissolved by adding water to the sample.

Where [1] appears, read: in water, visual complete dissolution, actual solubility may be higher than measured.

Read-outs that look alike come from different tables or passages of the source.

With `CC(O)C(=O)O.CC1CCC(N(C(=O)C(C)C)[C@H]2C[C@@H](C(=O)N3CCOCC3)N(C(=O)[C@@H]3CN(C(C)(C)C)C[C@H]3c3ccc(Cl)cc3)C2)CC1` (stereo partly drawn) [Example 1, N-((3S,5S)-1-((3S,4R)-1-(tert-butyl)-4-(4-chlorophenyl)pyrrolidine-3-carbonyl)-5-(morpholine-4-carbonyl)pyrrolidin-3-yl)-N-((1 s,4R)-4-methylcyclohexyl)isobutyramide lactate], the solubility result under setting [1] is “more than 24 mg/mL”. On the same count and under the same terms, under `CC(C)C(=O)N([C@H]1C[C@@H](C(=O)N2CCOCC2)N(C(=O)[C@@H]2CN(C(C)(C)C)C[C@H]2c2ccc(Cl)cc2)C1)[C@H]1CC[C@@H](C)CC1.O=S(=O)(O)c1ccccc1` [Example 2, N-((3S,5S)-1-((3S,4R)-1-(tert-butyl)-4-(4-chlorophenyl)pyrrolidine-3-carbonyl)-5-(morpholine-4-carbonyl)pyrrolidin-3-yl)-N-((1 s,4R)-4-methylcyclohexyl)isobutyramide benzene sulfonate] stands “more than 1 mg/mL”. In the case of `CC(C)C(=O)N([C@H]1C[C@@H](C(=O)N2CCOCC2)N(C(=O)[C@@H]2CN(C(C)(C)C)C[C@H]2c2ccc(Cl)cc2)C1)[C@H]1CC[C@@H](C)CC1.Cc1ccc(S(=O)(=O)O)cc1` [Example 3, N-((3S,5S)-1-((3S,4R)-1-(tert-butyl)-4-(4-chlorophenyl)pyrrolidine-3-carbonyl)-5-(morpholine-4-carbonyl)pyrrolidin-3-yl)-N-((1 s,4R)-4-methylcyclohexyl)isobutyramide toluene sulfonate], the solubility result was “more than 10 mg/mL”.
